Assay results taken from the supplement of paper PMC10307832.

How the values were obtained:
Experiment in all cases: relative viability (nuclei count vs DMSO), 5 days (fraction); higher = more cells survive
[1] = tested on: NCI-H1650
Procedure, shortened: (§1)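 Five library-drug doses in √10 steps were combined with a fixed anchor-drug dose, or a single drug was given alone, by pin tool to lung cancer cell lines in 1536-well plates the day after seeding. Nuclei were stained and counted after 5 days. Relative viability is the nuclei count in treated wells over that in vehicle wells, taken as the median of duplicate plates.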

[2] = tested on: SW 900
Procedure, shortened: as §1

[3] = tested on: A-427
Procedure, shortened: as §1

[4] = tested on: LCLC-97TM1
Procedure, shortened: as §1

[5] = tested on: NCI-H2347
Procedure, shortened: as §1

[6] = tested on: NCI-H838
Procedure, shortened: as §1

[7] = tested on: H3255
Procedure, shortened: as §1

[8] = tested on: NCI-H1793
Procedure, shortened: as §1

[9] = tested on: LU99A
Procedure, shortened: as §1

[10] = tested on: NCI-H1563
Procedure, shortened: as §1

[11] = tested on: NCI-H1944
Procedure, shortened: as §1

[12] = tested on: NCI-H460
Procedure, shortened: as §1

[13] = tested on: 201T
Procedure, shortened: as §1

[14] = tested on: PC-3 [JPC-3]
Procedure, shortened: as §1

[15] = tested on: LK-2
Procedure, shortened: as §1

[16] = tested on: NCI-H23
Procedure, shortened: as §1

[17] = tested on: NCI-H650
Procedure, shortened: as §1

[18] = tested on: PC-14
Procedure, shortened: as §1

[19] = tested on: SW 1573
Procedure, shortened: as §1

[20] = tested on: NCI-H727
Procedure, shortened: as §1

[21] = tested on: COR-L23
Procedure, shortened: as §1

[22] = tested on: LCLC-103H
Procedure, shortened: as §1

## NC(=O)Nc1cc(-c2cccc(F)c2)sc1C(=O)N[C@H]1CCCNC1 [AZD7762] + Cc1nc(Nc2ncc(C(=O)Nc3c(C)cccc3Cl)s2)cc(N2CCN(CCO)CC2)n1 [Dasatinib] (partner 0.075 µM)
[1]; first compound 0.01 µM
  relative viability: 0.313
[1]; first compound 0.03162 µM
  relative viability: 0.311
[1]; first compound 0.1 µM
  relative viability: 0.314
[1]; first compound 0.3162 µM
  relative viability: 0.264
[1]; first compound 1 µM
  relative viability: 0.19
[2]; first compound 0.01 µM
  relative viability: 0.421
[2]; first compound 0.03162 µM
  relative viability: 0.776
[2]; first compound 0.1 µM
  relative viability: 0.625
[2]; first compound 0.3162 µM
  relative viability: 0.674
[2]; first compound 1 µM
  relative viability: 0.165
[3]; first compound 0.01 µM
  relative viability: 0.83
[3]; first compound 0.03162 µM
  relative viability: 0.669
[3]; first compound 0.1 µM
  relative viability: 0.812
[3]; first compound 0.3162 µM
  relative viability: 0.663
[3]; first compound 1 µM
  relative viability: 0.218
[4]; first compound 0.01 µM
  relative viability: 0.913
[4]; first compound 0.03162 µM
  relative viability: 0.802
[4]; first compound 0.1 µM
  relative viability: 0.778
[4]; first compound 0.3162 µM
  relative viability: 0.572
[4]; first compound 1 µM
  relative viability: 0.447
[5]; first compound 0.01 µM
  relative viability: 0.36
[5]; first compound 0.03162 µM
  relative viability: 0.306
[5]; first compound 0.1 µM
  relative viability: 0.346
[5]; first compound 0.3162 µM
  relative viability: 0.35
[5]; first compound 1 µM
  relative viability: 0.253
[6]; first compound 0.01 µM
  relative viability: 0.322
[6]; first compound 0.03162 µM
  relative viability: 0.276
[6]; first compound 0.1 µM
  relative viability: 0.258
[6]; first compound 0.3162 µM
  relative viability: 0.251
[6]; first compound 1 µM
  relative viability: 0.24
[7]; first compound 0.01 µM
  relative viability: 0.347
[7]; first compound 0.03162 µM
  relative viability: 0.307
[7]; first compound 0.1 µM
  relative viability: 0.44
[7]; first compound 0.3162 µM
  relative viability: 0.352
[7]; first compound 1 µM
  relative viability: 0.319
[8]; first compound 0.01 µM
  relative viability: 0.408
[8]; first compound 0.03162 µM
  relative viability: 0.388
[8]; first compound 0.1 µM
  relative viability: 0.426
[8]; first compound 0.3162 µM
  relative viability: 0.482
[8]; first compound 1 µM
  relative viability: 0.276
[9]; first compound 0.01 µM
  relative viability: 0.551
[9]; first compound 0.03162 µM
  relative viability: 0.573
[9]; first compound 0.1 µM
  relative viability: 0.51
[9]; first compound 0.3162 µM
  relative viability: 0.419
[9]; first compound 1 µM
  relative viability: 0.202
[10]; first compound 0.01 µM
  relative viability: 0.451
[10]; first compound 0.03162 µM
  relative viability: 0.492
[10]; first compound 0.1 µM
  relative viability: 0.5
[10]; first compound 0.3162 µM
  relative viability: 0.524
[10]; first compound 1 µM
  relative viability: 0.419
[11]; first compound 0.01 µM
  relative viability: 0.231
[11]; first compound 0.03162 µM
  relative viability: 0.238
[11]; first compound 0.1 µM
  relative viability: 0.252
[11]; first compound 0.3162 µM
  relative viability: 0.256
[11]; first compound 1 µM
  relative viability: 0.232
[12]; first compound 0.01 µM
  relative viability: 0.531
[12]; first compound 0.03162 µM
  relative viability: 0.578
[12]; first compound 0.1 µM
  relative viability: 0.443
[12]; first compound 0.3162 µM
  relative viability: 0.304
[12]; first compound 1 µM
  relative viability: 0.0715
[13]; first compound 0.01 µM
  relative viability: 0.592
[13]; first compound 0.03162 µM
  relative viability: 0.584
[13]; first compound 0.1 µM
  relative viability: 0.602
[13]; first compound 0.3162 µM
  relative viability: 0.567
[13]; first compound 1 µM
  relative viability: 0.473
[14]; first compound 0.01 µM
  relative viability: 1.05
[14]; first compound 0.03162 µM
  relative viability: 0.961
[14]; first compound 0.1 µM
  relative viability: 0.969
[14]; first compound 0.3162 µM
  relative viability: 1.01
[14]; first compound 1 µM
  relative viability: 0.716
[15]; first compound 0.01 µM
  relative viability: 0.269
[15]; first compound 0.03162 µM
  relative viability: 0.266
[15]; first compound 0.1 µM
  relative viability: 0.283
[15]; first compound 0.3162 µM
  relative viability: 0.27
[15]; first compound 1 µM
  relative viability: 0.298
[16]; first compound 0.01 µM
  relative viability: 0.961
[16]; first compound 0.03162 µM
  relative viability: 0.832
[16]; first compound 0.1 µM
  relative viability: 0.877
[16]; first compound 0.3162 µM
  relative viability: 0.567
[16]; first compound 1 µM
  relative viability: 0.313
[17]; first compound 0.01 µM
  relative viability: 0.455
[17]; first compound 0.03162 µM
  relative viability: 0.539
[17]; first compound 0.1 µM
  relative viability: 0.475
[17]; first compound 0.3162 µM
  relative viability: 0.505
[17]; first compound 1 µM
  relative viability: 0.412
[18]; first compound 0.01 µM
  relative viability: 0.281
[18]; first compound 0.03162 µM
  relative viability: 0.254
[18]; first compound 0.1 µM
  relative viability: 0.211
[18]; first compound 0.3162 µM
  relative viability: 0.0804
[18]; first compound 1 µM
  relative viability: 0.0213
[19]; first compound 0.01 µM
  relative viability: 0.576
[19]; first compound 0.03162 µM
  relative viability: 0.561
[19]; first compound 0.1 µM
  relative viability: 0.45
[19]; first compound 0.3162 µM
  relative viability: 0.247
[19]; first compound 1 µM
  relative viability: 0.121
[20]; first compound 0.01 µM
  relative viability: 0.374
[20]; first compound 0.03162 µM
  relative viability: 0.422
[20]; first compound 0.1 µM
  relative viability: 0.35
[20]; first compound 0.3162 µM
  relative viability: 0.284
[20]; first compound 1 µM
  relative viability: 0.191
[21]; first compound 0.01 µM
  relative viability: 0.477
[21]; first compound 0.03162 µM
  relative viability: 0.528
[21]; first compound 0.1 µM
  relative viability: 0.515
[21]; first compound 0.3162 µM
  relative viability: 0.313
[21]; first compound 1 µM
  relative viability: 0.0945
[22]; first compound 0.01 µM
  relative viability: 0.555
[22]; first compound 0.03162 µM
  relative viability: 0.463
[22]; first compound 0.1 µM
  relative viability: 0.422
[22]; first compound 0.3162 µM
  relative viability: 0.515
[22]; first compound 1 µM
  relative viability: 0.284
